Experimental data: patent US20040018259A1, “Use of at least one extract of a plant of the genus lannea in a cosmetic or dermopharmaceutical composition” (priority 1999, published 2004)
Each block holds one molecule with its values, some of them ahead of it.

How the values were obtained:
[1] = target: T1, elastase of the abdominal salivary gland (serine protease) (Sus scrofa, UniProt P00772); experiment: In tubo antielastase test, synthetic chromogenic substrate; assay type: biochemical
Description: (§1) The in tubo tests are carried out with an elastase of the abdominal salivary gland (serine protease) using two types of substrate: a synthetic color-forming (chromogenic) substrate and a natural substrate consisting of elastin connected with Congo red.
(§2) Incubation lasts 30 minutes at room temperature and coloration is measured at 410 nm and 520 nm.
(§3) The inhibition test standard tested for comparison is 1 antitrypsin.

[2] = target: T1, elastase of the abdominal salivary gland (serine protease); experiment: In tubo antielastase test, elastin connected with Congo red; assay type: biochemical
Description: as §1, §2, §3

[3] = tested on: singlet oxygen on type I collagen; experiment: Anti-singlet oxygen effect on type I collagen (viscosity, riboflavin + UV-A)
Source text: Collagen is a dermal glycoprotein which is very sensitive to the activity of the reactive form of oxygen (or FRO). It was shown that singlet oxygen (O2^1) produces troublesome crosslinkings among the proteins.
The principle of this test is based on measurement of the viscosity of an aqueous solution of type I collagen in the presence of a photochemical O2^1-evolving system.
O2^1, which is produced by riboflavin in the presence of UV-A, causes the collagen to gel in the presence of glucose which is reflected in an increase in viscosity. This effect is inhibited by the molecules which expose O2^1, such as thiourea or aminoguanidine for example.
Viscosity is evaluated by measurement of the throughflow time through the capillary of a “Cannon Fenske” viscosimeter.

[4] = tested on: B16 melanocytes; experiment: In vitro melanogenesis inhibition test on B16 melanocytes; assay type: cell-based; details: 0.3% dose
Description: In Vitro Melanogenesis Inhibition Test on B16 Melanocytes inoculation of the melanocytes into a growth substrate, incubation for three days at 37° C., CO2=5%, introduction of the Lannea coromandelica extracts into a medium which activates melanogenesis, […]
spectrophotometric dosing of the proteins (co-called Bradford method) and the melanin (DO at 475 nm) into the homogenized melanocytes, calculation of an activity index which corresponds to the ratio (protein level/melanin level) for an optimal dose of extract.
It follows that the higher the index (>1), the greater the ability to inhibit melanogensis.

[5] = Anti-anion superoxide test (hypoxanthine/xanthine oxidase) with luminol + microperoxidase; assay type: biochemical; details: for percentage inhibition, test with luminol + microperoxidase: average of 2 tests
Source text: (§4) *Anti-Anion Superoxide Effect (O2.^−) O2.^− is produced during the oxidizing stress through the introduction of an enzyme, xanthine oxidase (XOD), which degrades the excess hypoxanthine (HX) during an interruption in or disruption of the energy metabolism in living tissue. O2.^− is toxic, particularly because of its ability to form hydrogen peroxide (H2O2)—which in turn forms a source of HO^• through the Fenton reaction—either spontaneously or in the presence of Superoxid-Dismutase (SOD). The biochemical tests are carried out with HX in the presence of XOD and the O2.^− are exposed by luminol or a mixture of luminol and peroxidase, which exposes O2.^− and H2O2, or by a tetrazolium salt (NBT) which forms a red compound evaluated at 540 nm.

[6] = Anti-anion superoxide test (hypoxanthine/xanthine oxidase) with NBT; assay type: biochemical; details: for percentage inhibition, test with NBT: average of 2 tests
Source text: as §4

[7] = Anti-HO° test with deoxyribose (Fenton reaction) without EDTA; details: for percentage inhibition of the hydroxylation rate: average of 2 tests
Description: (§5) Anti-HO°-Test with Deoxyribose (Fenton Reaction) These tests evaluate the ability of an active substance to eliminate (“bait”) HO° produced by the Fenton reaction (H2O2 in the presence of iron). HO° can be exposed by deoxyribose. Deoxyribose is an essential compound of ADN which is oxidized and then fragmented by HO°. The oxidation product of deoxyribose is exposed by condensation with thiobarbituric acid (measurement of optical density at 532 nm). This test is carried out with and without EDTA in order to determine the ability of the extract to form active complex compounds with iron (“[…] effect”).

[8] = Anti-anion superoxide test (hypoxanthine/xanthine oxidase) with luminol; assay type: biochemical; details: for percentage inhibition, test with luminol: average of 2 tests
Source text: as §4

[9] = Anti-DPPH° test (anti-radical effect); details: for level of leuco compound formed (in % in relation to the control): average of 2 tests
Source text: a) DPPH° Test DPPH (diphenyl picryl hydrazyl) is a stable, free, violet-colored radical which is modified in its leuco compound by the substances that trap the free radicals (=scavenger or bait effect). The result is expressed in leuco compound levels which are formed in the presence of the active agent (in % in relation to the control with no active principle).

[10] = Anti-HO° test with deoxyribose (Fenton reaction) with EDTA; details: for percentage inhibition of the hydroxylation rate: average of 2 tests
Description: as §5

[11] = tested on: tyrosinase; experiment: In tubo tyrosinase inhibition test (L-DOPA, dopachromium DO at 475 nm); assay type: biochemical; details: extract concentration producing 50% inhibition of the enzyme activity
Source text: In Tubo Tyrosinase Inhibition Test mixing of the L-DOPA with tyrosinase and the Lannea coromandelica extracts to be tested, recording of the DO at 475 nm of the dopachromium, calculation of the kinetics, then the CI50 (extract concentration which produces a 50% inhibition of the enzyme activity).

[12] = tested on: clostridium hystoliticum collagenase; experiment: In tubo anticollagenase test (FALGPA substrate); assay type: biochemical
Description: b) In Tubo Anticollagenase Test
The tests are carried out with a clostridium hystoliticum collagenase and a synthetic chromogenic substrate: FALGPA. Incubation lasts 3O minutes at room temperature and optical density is measured at 324 nm. The inhibition test standard tested for comparison is cysteine.
The results are set out in Table X below which emphasizes the anticollagenase activity of the Lannea coromandelica extracts (results in percentage inhibition).

[13] = tested on: human fibroblasts; experiment: Anti-UVA cytophotoprotection test on human fibroblasts; assay type: cell-based; details: UV-A 15 J/cm^2
Source text: d) Anti-UVA-Cytophotoprotection Test on Human Fibroblasts
This in vitro test evaluates the ability of Lannea coromandelica extracts according to the invention to afford human fibroblasts cytophotoprotection against UV-A.
The UV-As are selected as a study model because they penetrate into the inner skin and introduce an oxidizing stress into the skin which is reflected in particular in a lipoperoxidation of the cytoplasmic membrane. The lipoperoxides formed split up into malonaldialdehydes (MDAs) which are responsible for the crosslinking of numerous biological molecules, such as proteins for example (enzyme inhibition), and nuclein bases (mutagenesis).
Fibroblasts are inoculated into a nutrient medium defined with calf foetus serum. The Lannea coromandelica extract was added 2 to 3 days after inoculation. After incubation for 2 to 3 days at 37° C./CO2=5%, the nutrient medium is replaced by a salt solution and the fibroblasts are exposed to a dose of UV-A (15 J/cm^2).
After the exposure, the MDA level in the salt solution floating on the surface is determined and the protein level in the fibroblasts is measured. The MDA level is determined by reaction to thiobarbituric acid while the protein levels are determined by the Bradford method.

T1 sequence (P00772 27-266): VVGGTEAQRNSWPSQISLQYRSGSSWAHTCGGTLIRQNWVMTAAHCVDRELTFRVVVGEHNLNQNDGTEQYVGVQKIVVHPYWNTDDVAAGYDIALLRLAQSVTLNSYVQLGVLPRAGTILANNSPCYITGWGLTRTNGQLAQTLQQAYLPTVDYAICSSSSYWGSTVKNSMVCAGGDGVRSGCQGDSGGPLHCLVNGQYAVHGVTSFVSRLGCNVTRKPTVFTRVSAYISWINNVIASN

Molecule: 1α antitrypsin: inhibition test standard tested for comparison in the antielastase test
Cl50 antielastase, synthetic substrate [1]: NB: Cl50 in % by wt./vol. for 1α antitrypsin = 0.04% | Cl50 antielastase, elastin connected with Congo red [2]: NB: Cl50 in % by wt./vol. for 1α antitrypsin = 0.04%

Molecule: N=C(N)NN [Aminoguanidine, aminoguanidine]
Cl50 photoprotection of type I collagen [3]: 0.004 % (wt./vol.) | photoprotective effect on type I collagen, percentage inhibition ([3]; dose 0.005% (wt./vol.)): 57% | photoprotective effect on type I collagen, percentage inhibition ([3]; dose 0.015% (wt./vol.)): 75%

Molecule: OC[C@H]1O[C@@H](Oc2ccc(O)cc2)[C@H](O)[C@@H](O)[C@@H]1O [Arbutin]
I = activity index on B16 melanocytes (protein level/melanin level) [4]: I = 3.14 (for the 0.3% dose)

Cl50 test with luminol + microperoxidase [5]: 0.0058 % (wt./vol.) | percentage inhibition, test with luminol + microperoxidase ([5]; dose 0.001% (wt./vol.)): 0% | percentage inhibition, test with luminol + microperoxidase ([5]; dose 0.01% (wt./vol.)): 94% | Cl50 test with NBT [6]: 0.5909 % (wt./vol.) | percentage inhibition, test with NBT ([6]; dose 0.01% (wt./vol.)): 15% | percentage inhibition, test with NBT ([6]; dose 0.1% (wt./vol.)): 32% | percentage inhibition, test with NBT ([6]; dose I % (wt./vol.)): 65% | Cl50 test with luminol [8]: 0.0006 % (wt./vol.) | percentage inhibition, test with luminol ([8]; dose 0.0001% (wt./vol.)): 5% | percentage inhibition, test with luminol ([8]; dose 0.001% (wt./vol.)): 92% | percentage inhibition, test with luminol ([8]; dose 0.01% (wt./vol.)): 100%
Molecule: O=C1O[C@H]([C@@H](O)CO)C(O)=C1O [Ascorbic acid]
Cl50 Fenton reaction without EDTA [7]: 0.9 % (wt./vol.) | percentage inhibition of the hydroxylation rate ([7]; dose 0.01% (wt./vol.)): 5% | percentage inhibition of the hydroxylation rate ([7]; dose 0.03% (wt./vol.)): 75% | percentage inhibition of the hydroxylation rate ([7]; dose 0.1% (wt./vol.)): 2% | percentage inhibition of the hydroxylation rate ([7]; dose 1% (wt./vol.)): 56% | Cl50 anti-DPPH° test [9]: 0.0013 % (wt./vol.) | level of leuco compound formed (in % in relation to the control) ([9]; dose 0.001% (wt./vol.)): 49% | level of leuco compound formed (in % in relation to the control) ([9]; dose 0.01% (wt./vol.)): 75% | Cl50 Fenton reaction with EDTA [10]: 0.26 % (wt./vol.) | percentage inhibition of the hydroxylation rate ([10]; dose 0.1% (wt./vol.)): 45% | percentage inhibition of the hydroxylation rate ([10]; dose 1% (wt./vol.)): 73%

Cl50 in tubo tyrosinase inhibition [11]: Cl50 = 0.025% by wt./vol.
Molecule: Oc1ccc(O)cc1 [Hydroquinone]

Molecule: N[C@@H](CS)C(=O)O [cysteine]
Cl50 anticollagenase [12]: NB: Cl50 in % by wt./vol. of cysteine = 2.4%

Molecule: Vitamin E
MDA level in % in relation to the irradiated control ([13]; 0.0003%): 21% | Proteins in % in relation to the non-irradiated control ([13]; 0.0003%): 97% | MDA level in % in relation to the irradiated control ([13]; 0.001%): 8% | Proteins in % in relation to the non-irradiated control ([13]; 0.001%): 98%
